Laboratory results reported in US4461772A, “Additives for improving ruminant feed utilization” (SDS Biotech Corporation, priority 1983, dated 1984).

How the values were obtained:
rumen fluid = test: In vitro rumen fluid incubation (18 h): volatile fatty acids and methane inhibition; format: cell-based, sheep; conditions: 39° C.; for C2 (acetate), Ratio Treated to Control / C3 (propionate), Ratio Treated to Control / C4 (butyrate), Ratio Treated to Control / Total VFA, Ratio Treated to Control: 50.0 ppm, pH 7.0; for inhibition at 50 ppm: Ovis aries, vs negative control
Method: Below is set forth the procedure followed for testing the compounds of the present invention in vitro. For these studies, rumen fistulated sheep were fed a concentrate diet which constituted 3 parts chopped corn and cob and 1 part alfalfa pellets.
1. Rumen fluid was removed from a fistulated sheep and strained through 4 layers of cheese cloth to remove large feed particles.
2. One part rumen fluid was added to 3 parts of modified McDougal's Artificial Saliva, the pH was adjusted to 7.0 and the saliva solution was prewarmed to 39° C. in a water bath and gassed with CO2.
(a) Modified McDougal Artificial Saliva composition:
To prepare (a), (i) 9.8 g NaHCO3, 11.7 g KHCO3, 5.1 g NaH2 PO4 and 4.08 g KH2 PO4 were diluted with two (2) liters of distilled H2 O; (ii) 20 mL of 100X salt solution was diluted to 1.33 l with tap H2 O; and (iii) mix (i) with (ii) to prepare the modified McDougal Artificial Saliva.
3. Add 0.01 g concentrate feed/1 mL of buffered rumen fluid (the buffered rumen fluid with concentrate should be stirred at all times to prevent the concentrate from settling).
4. Dispense 20 mL of buffered rumen fluid into 30 mL serum bottles that are being gassed with CO2. (A manifold that gases 12 bottles at a time was used.) The bottles should be in a 39° C. H2 O bath.
5. The test compounds, i.e., the compounds of the present invention, were first added to the bottles. After the addition of the buffered rumen fluid to all 12 bottles, the gassing cannulae were quickly removed and a butyl rubber stopper was inserted in each bottle. An aluminum seal was then placed on each bottle and crimped tight.
6. The sealed bottles were removed from the water bath, shaken and placed in a 39° C. incubator for 18 hours.
7. After the 18-hour incubation, the bottles were removed from the incubator and the head space gas was analyzed using a gas partitioner.
8. Four mL of rumen fluid was removed from each bottle for volatile fatty acid (VFA) analysis.
(a) The 4 mL sample was added to a centrifuge tube to which had previously been added 0.04 mL of 50 percent H2 SO4 and 1 mL 2-ethylbutyric acid (concentration 2 mL of 2-ethylbutyric acid/500 mL H2 O v/v).
(b) The mixture from (a) was centrifuged at 10000 xg for 20 minutes.
(c) The supernatant was removed and analyzed by gas-liquid chromatography. The above procedures were followed in all trials for testing the compounds of the present invention.

rumen = test: In vivo rumen VFA trial in rumen fistulated sheep (90 days); conditions: 90 day trial average
Excerpt: Eight rumen fistulated sheep were used as test animals. Two sheep were alotted to each of three treatments and a control for each test. Group I was always the control group in each of the different trials. Groups II through IV had varying concentrations of compounds of the present invention added to the animals' feed. The feed ration in each trial constituted 3 parts chopped corn and cob and 1 part alfalfa pellets. Each sheep was offered 800 g daily of the feed in two equal portions. The particular compound and vitamin premix were mixed with chopped corn and cob. Any feed refusals were weighed back before each feeding and discarded. To prevent any mold growth, the feed was stored under refrigeration.
All animals in the various treatment groups were sampled for VFA's twice a week. Equal volumes of rumen fluid from each animal within a treatment were pooled for treatment VFA analysis. Fluid from individual animals was also analyzed for VFA. Individual animal VFA's within a treatment were averaged. This value was then averaged with pooled treatment VFA yielding the final treatment VFA value. All ratios and statistics were calculated using this final value. VFA's were calculated as the ratio treated to its respective pretreatment value. Each of the trials lasted for 90 days.

[1] = test system: propionate production in the rumen; conditions: oral administration to ruminants, Raun patents; cited from earlier work
[2] = Table III, Group II, level 0.05 % of feed (approx. 60 ppm in rumen)
[3] = Table III, Group III, level 0.075 % of feed
[4] = Table III, Group IV, level 0.025 % of feed
[5] = Table II, Group II, level 0.01 % of feed
[6] = Table II, Group III, level 0.05 % of feed (approx. 60 ppm in rumen)
[7] = Table II, Group IV, level 0.025 % of feed

O=C(CCl)NCCc1nnn[nH]1
C2 (acetate), Ratio Treated to Control (rumen fluid): 0.91 | C3 (propionate), Ratio Treated to Control (rumen fluid): 1.16 | C4 (butyrate), Ratio Treated to Control (rumen fluid): 1.05 | Total VFA, Ratio Treated to Control (rumen fluid): 1.02 | inhibition at 50 ppm (rumen fluid): 4.9%

Cc1ccc(S(=O)(=O)OCCc2nnn[nH]2)cc1
C2 (acetate), Ratio Treated to Control (rumen fluid): 0.92 | C3 (propionate), Ratio Treated to Control (rumen fluid): 1.23 | C4 (butyrate), Ratio Treated to Control (rumen fluid): 0.95 | Total VFA, Ratio Treated to Control (rumen fluid): 1.07 | inhibition at 50 ppm (rumen fluid): 8%

CS(=O)(=O)NCCC#N [CNCH2 CH2 NHSO2 CH3]
C2 (acetate), Ratio Treated to Control (rumen fluid): 0.7 | C3 (propionate), Ratio Treated to Control (rumen fluid): 1.58 | C4 (butyrate), Ratio Treated to Control (rumen fluid): 1.13 | Total VFA, Ratio Treated to Control (rumen fluid): 0.97 | inhibition at 50 ppm (rumen fluid): 73.4%

BrCCc1nnn[nH]1 [TCH2 CH2 Br]
C2 (acetate), Ratio Treated to Control (rumen fluid): 0.73 | C3 (propionate), Ratio Treated to Control (rumen fluid): 1.44 | C4 (butyrate), Ratio Treated to Control (rumen fluid): 1.25 | Total VFA, Ratio Treated to Control (rumen fluid): 0.91 | inhibition at 50 ppm (rumen fluid): 91.3%

ClCCc1nnn[nH]1 [TCH2 CH2 Cl, 5-(2-Chloroethyl)Tetrazole]
C2 (acetate), Ratio Treated to Control (rumen fluid): 0.76 | C3 (propionate), Ratio Treated to Control (rumen fluid): 1.48 | C4 (butyrate), Ratio Treated to Control (rumen fluid): 0.92 | Total VFA, Ratio Treated to Control (rumen fluid): 1.03 | inhibition at 50 ppm (rumen fluid): 74.6% | C2 (acetate), Ratio of Treatment VFA to Pretreatment VFA (rumen; [2]): 0.97 | C3 (propionate), Ratio of Treatment VFA to Pretreatment VFA (rumen; [2]): 1.06 | C4 (butyrate), Ratio of Treatment VFA to Pretreatment VFA (rumen; [2]): 1.11 | Total VFA, Ratio of Treatment VFA to Pretreatment VFA (rumen; [2]): 0.88 | C2 (acetate), Ratio of Treatment VFA to Pretreatment VFA (rumen; [3]): 0.92 | C3 (propionate), Ratio of Treatment VFA to Pretreatment VFA (rumen; [3]): 1.24 | C4 (butyrate), Ratio of Treatment VFA to Pretreatment VFA (rumen; [3]): 1.05 | Total VFA, Ratio of Treatment VFA to Pretreatment VFA (rumen; [3]): 0.89 | C2 (acetate), Ratio of Treatment VFA to Pretreatment VFA (rumen; [4]): 0.97 | C3 (propionate), Ratio of Treatment VFA to Pretreatment VFA (rumen; [4]): 1.00 | C4 (butyrate), Ratio of Treatment VFA to Pretreatment VFA (rumen; [4]): 1.20 | Total VFA, Ratio of Treatment VFA to Pretreatment VFA (rumen; [4]): 1.05

CS(=O)(=O)NCCc1nnn[nH]1 [TCH2 CH2 NHSO2 CH3]
C2 (acetate), Ratio Treated to Control (rumen fluid): 0.99 | C3 (propionate), Ratio Treated to Control (rumen fluid): 1.04 | C4 (butyrate), Ratio Treated to Control (rumen fluid): 0.99 | Total VFA, Ratio Treated to Control (rumen fluid): 1.02 | inhibition at 50 ppm (rumen fluid): 0.7%

ClCc1nnn[nH]1 [TCH2 Cl, 5-Chloromethyltetrazole]
C2 (acetate), Ratio Treated to Control (rumen fluid): 0.74 | C3 (propionate), Ratio Treated to Control (rumen fluid): 1.49 | C4 (butyrate), Ratio Treated to Control (rumen fluid): 0.95 | Total VFA, Ratio Treated to Control (rumen fluid): 0.96 | inhibition at 50 ppm (rumen fluid): 96.8% | C2 (acetate), Ratio of Treatment VFA to Pretreatment VFA (rumen; [5]): 1.01 | C3 (propionate), Ratio of Treatment VFA to Pretreatment VFA (rumen; [5]): 0.98 | C4 (butyrate), Ratio of Treatment VFA to Pretreatment VFA (rumen; [5]): 1.02 | Total VFA, Ratio of Treatment VFA to Pretreatment VFA (rumen; [5]): 0.96 | C2 (acetate), Ratio of Treatment VFA to Pretreatment VFA (rumen; [6]): 0.97 | C3 (propionate), Ratio of Treatment VFA to Pretreatment VFA (rumen; [6]): 1.05 | C4 (butyrate), Ratio of Treatment VFA to Pretreatment VFA (rumen; [6]): 1.04 | Total VFA, Ratio of Treatment VFA to Pretreatment VFA (rumen; [6]): 0.88 | C2 (acetate), Ratio of Treatment VFA to Pretreatment VFA (rumen; [7]): 0.96 | C3 (propionate), Ratio of Treatment VFA to Pretreatment VFA (rumen; [7]): 1.10 | C4 (butyrate), Ratio of Treatment VFA to Pretreatment VFA (rumen; [7]): 1.05 | Total VFA, Ratio of Treatment VFA to Pretreatment VFA (rumen; [7]): 0.93

CO[C@H]1CC[C@@H](O[C@H]2C[C@H]([C@]3(C)CC[C@]4(C[C@H](O)[C@@H](C)[C@@H]([C@@H](C)/C=C(\C)C(=O)[C@H](C)C[C@H](C)C(=O)O)O4)O3)O[C@]3(O[C@@H]([C@H]4O[C@@](O)(CO)[C@H](C)C[C@@H]4C)C[C@@H]3C)[C@@H]2C)O[C@@H]1C [dianemycin]
propionate production (in words) [1]: propionate production could be increased

CC[C@@]1([C@@H]2O[C@@H]([C@H]3O[C@@](O)(CO)[C@H](C)C[C@@H]3C)C[C@@H]2C)CC[C@H]([C@]2(C)CC[C@]3(C[C@H](O)[C@@H](C)[C@@H]([C@@H](C)[C@@H](OC)[C@H](C)C(=O)O)O3)O2)O1 [monensin]
propionate production (in words) [1]: propionate production could be increased

C=C(NC(=O)C(=C)NC(=O)c1csc(C2=N[C@@H]3c4csc(n4)[C@H]4NC(=O)c5csc(n5)[C@H]([C@](C)(O)[C@@H](C)O)NC(=O)[C@H]5CSC(=N5)/C(=C/C)NC(=O)[C@H]([C@@H](C)O)NC(=O)c5csc(n5)[C@]3(CC2)NC(=O)[C@H](C)NC(=O)C(=C)NC(=O)[C@H](C)NC(=O)[C@H]([C@@H](C)CC)N[C@@H]2C=Cc3c([C@H](C)O)cc(nc3[C@H]2O)C(=O)O[C@@H]4C)n1)C(N)=O [thiostrepton]
propionate production (in words) [1]: propionate production could be increased
